Patent publication US20100063126A1, “Carbazole-Derived Pharmaceutical Compositions” (JadoLabs GmbH, priority 2004, published 2010)

Key:
PR8 virus = assay: microbe, parasite or virus in culture; format: cell-based; settings: unidentified influenza virus, PR8, MDCK; for inhibition at 3.125 µM: read-out: inhibition of virus replication / infection
influenza virus = assay: Virus budding assay (influenza assay); format: cell-based
[1] = Disrafter-Liposome Raftophile Assay (D-LRA); settings: 100 μM
RBL-2H3 cells = assay: Degranulation assay (β-hexosaminidase release); format: cell-based, Rat
HIV-1 strain NL4-3 = assay: microbe, parasite or virus in culture; format: cell-based; settings: Human immunodeficiency virus 1, NL43, HeLa TZM cells, compared to solvent, read-out: inhibition of HIV infection
[2] = test system: vesicular stomatitis virus (VSV); format: cell-based; settings: HeLa cells
Wild type SV40 viruses = format: cell-based, Simian Virus 40; settings: 15CM, HeLa cells, compared to solvent control
[3] = Rattus norvegicus, RBL-2H3, read-out: inhibition of release of β-hexosaminidase

Compound | inhibition in influenza virus budding assay (influenza virus) | inhibition at 3.125 µM (PR8 virus) [%] | inhibition at 10 µM (HIV-1 strain NL4-3) [%] | other results
CCCCCCCC1=C(C)C(=O)C(=O)c2c1[nH]c1ccccc21 [Compound 21b] | inhibitory |  |  | inhibition at 25 µM (PR8 virus; read-out: inhibition of virus replication): 18.3%
CCCCCCCc1c(C)c(OC)cc2c1[nH]c1ccccc12 [Compound 24d] | inhibitory |  |  | disrafting activity (% disrafting) ([1]; perylene as marker): -98.5%; inhibition at 100 µM (PR8 virus; read-out: inhibition of virus infection): 50.9%
Cc1c(C)c2c(c(C)c1O)CC[C@@](C)(CCC[C@H](C)CCC[C@H](C)CCCC(C)C)O2 [Alpha-(+)-tocopherol] |  |  |  | activity in mast cell degranulation assay (RBL-2H3 cells): moderately active
CCCCCCCCCCCCCCCCCCOc1cc2[nH]c3cc(OC)ccc3c2cc1C [Compound 25d] | inhibitory | 18.4 |  | 
CC1=C(Cc2ccc3[nH]c4c(c3c2)C(=O)C(=O)C(C)=C4CC(C)O)CCC(C)(C)C1 (centres unmarked) [Compound 22a] | inhibitory | 24.2 | 15 | inhibitory effect on viral infection in VSV counterscreen [2]: no inhibitory effect on viral infection at all; inhibition of SV40 infection (Wild type SV40 viruses): 19%
CCCCCCCc1c(C)c(OC)c(OC)c2c1[nH]c1ccccc12 [Compound 22d] |  |  | 21 | 
CC(C)=CCc1ccc2[nH]c3c(c2c1)C(=O)C(=O)C(C)=C3C[C@@H](C)O [Compound 21a] |  |  |  | disrafting activity (% disrafting) ([1]; perylene as marker): 47.2%; inhibition at 100 µM (RBL-2H3 cells; [3]): 46%
CCCCCCCc1c(C)c(O)cc2c1[nH]c1ccccc12 [Compound 23d] |  |  | 20 | disrafting activity (% disrafting) ([1]; GS-96 as marker): -97.3%; inhibition at 100 µM (RBL-2H3 cells; [3]): 15%
CCCCCCCC1(O)C(C)=C(OC)C(=O)c2c1[nH]c1ccccc21 (centres unmarked) [Compound 22c] | inhibitory | 60.2 | 44 | inhibition at 50 µM (RBL-2H3 cells; [3]): 12%
